Results on 2 molecules are retold here after ChEMBL document CHEMBL1152350, “Identification of compounds exhibiting inhibitory activity toward the Pseudomonas tolaasii toxin tolaasin I using in silico docking calculations, NMR binding assays, and in vitro hemolytic activity assays” (Bioorg Med Chem Lett, 2009).

The test system of test [1] is Pseudomonas tolaasii. Kind of test: Binding affinity to Pseudomonas tolaasii tolaasin 1 at 1 mM by NMR spectroscopy.
Test [2] has as its system Pseudomonas tolaasii. In words: Suppression of Pseudomonas tolaasii tolaasin 1-induced hemolysis in rat erythrocytes. It counts as cell-based.
In test [3] the test system is Pseudomonas tolaasii. Kind of test: Suppression of Pseudomonas tolaasii tolaasin 1-induced hemolysis in rat erythrocytes at >1 mM. The format is cell-based.
The subject of test [4] is Pseudomonas tolaasii. In words: Suppression of Pseudomonas tolaasii tolaasin 1-induced hemolysis in rat erythrocytes at 10 to 100 uM. The format is cell-based.

Activity calls are given as the source filed them. The rule behind the calls is not given here.

`Cc1[nH]c(=N)sc1C`: the result in test [1] and in test [2] was inactive.

As to `CCCCCCCC/C=C\CCCCCCCC(=O)OC[C@@H](O)[C@@H](O)[C@H](O)[C@@H](O)CO`, in test [1], the outcome was Active. Further, in test [3], the result was inactive. The molecule also showed an Activity in test [4] of 40%.
